Source: EP3474833B1, “CINNAMYL ALCOHOL DERIVATIVE FOR USE IN REDUCING APPETITE AND FOR GENERATING THE FEELING OF BEING FULL” (Symrise AG, priority 2016, dated 2017)

What follows are compounds tested on humane Neuroblastomazellen (SH-SY5Y, ATCC Nummer CRL-2266) (assay: Serotonin release in SH-SY5Y neuroblastoma cells (Serotonin-ELISA)). Settings: SH-SY5Y-Zellen, 10 µM test substance, 5 min stimulation, Krebs-Ringer-HEPES Puffer pH 6,2; relative to 10 µM Nonivamid.
Format: cell-based, human
Description: Als Zellmodell für die Ausschüttung des Neurotransmitters Serotonin werden humane Neuroblastomazellen (SH-SY5Y, ATCC Nummer CRL-2266) verwendet. Die Kultivierung erfolgt bei 37 °C und 5 % CO2-Gehalt mit einer Mischung, die zu gleichen Teilen aus Eagle's Minimum Essential Medium (EMEM) und F12 Medium (jeweils mit 10 % FBS und 1 % Penicillin/Streptomycin) besteht. Zur Bestimmung der Serotoninfreisetzung werden die Zellen mit Trypsin geerntet und nach einer Vitalitätsprüfung durch Trypanblaufärbung in definierter Zellzahl in 24-well Platten (Corning cell culture treated) ausgesät.
Nach 5-minütiger Stimulierung von 90.000 humanen Neuroblastomazellen (SH SY5Y) mit 60 µl Krebs-Ringer-HEPES Puffer, 0,1 % Ascorbinsäure, pH 6,2, mit oder ohne Zusatz von 10 µM einer der Verbindungen 1-4, , bzw. 10 µM Nonivamid als Positivkontrolle wird der Serotoningehalt mit Hilfe eines enzymbasierten Nachweisverfahrens (Serotonin-ELISA sensitiv, DLD Diagnostica, Hamburg, Deutschland) ermittelt. Tabelle 1. Serotonin-Freisetzung in SH-SY5Y-Zellen nach Stimulierung mit je 10 µM von Verbindungen nach Formel I.

Going from `CCCCCCCCC(=O)NCc1ccc(O)c(OC)c1` [Nonivamid, N-Nonanoylvanillylamin, reference compound] to `CCC(=O)OCC=Cc1ccccc1` [Verbindung 4, Cinnamylpropionat], the “Serotoninfreisetzung [% der Positivkontrolle]” value rises from 100 % der Positivkontrolle to 115.57 % der Positivkontrolle.

First: OCC=Cc1ccccc1 [Verbindung 1, Cinnamylalkohol]
Second: CC(C)C(=O)OCC=Cc1ccccc1 [Verbindung 6, Cinnamylisobutyrat]
The “Serotoninfreisetzung [% der Positivkontrolle]” value of the first is higher: 129.29 % der Positivkontrolle for the first, 120.69 % der Positivkontrolle for the second.

Going from `CC(C)CC(=O)OC/C=C/c1ccccc1` [Verbindung 7, Cinnamylisovalerianat] to `O=C(C=Cc1ccccc1)OCC=Cc1ccccc1` [Verbindung 11, Cinnamylcinnamat], the “Serotoninfreisetzung [% der Positivkontrolle]” value rises from 118.47 % der Positivkontrolle to 120.83 % der Positivkontrolle.
